Patent US9657014B2, “Substituted 1,6-naphthyridines” (Hoffmann-La Roche Inc., priority 2012, dated 2017)

tested on: human embryonic stem cell derived neural stem cells (NSCs); assay: Neural stem cell proliferation assay (neurogenesis assay); format: cell-based; conditions: Homo sapiens, Neural stem cell, 96 h; Table 1, novel compounds; concentration at which 150% activity of control (100%) is reached; ATP levels (CellTiterGlo) after 4 days incubation
Protocol: Neural Stem Cell Proliferation Assay
Neurogenic properties of small molecules are determined based on the proliferation of human embryonic stem cell derived neural stem cells (NSCs) which were derived via a dual smad inhibition as previously described (Chambers, S. M., et al., Highly efficient neural conversion of human ES and iPS cells by dual inhibition of SMAD signaling, Nature biotechnology, 2009. 27 (3): p. 275-80.)
Compounds respond is measured by the increase in cells based on ATP levels (Promega:CellTiterGlo®) after an incubation period of 4 days.
NSCs are thawed and expanded over 3 passages. On the 14th day, NSCs are seeded in Polyornithin/Laminin coated 384 well plates at a cell density of 21,000 cells/cm^2 in a media volume of 38 μl.
4 hours after cell seeding, compound solutions are added at a volume of 2 μl. Stock solutions of the compounds (water, 5% DMSO) are diluted to obtain a dose response (11 points, dilution factor is 2), ranging from 8 μM to 8 nM. Controls are run to consistently determine the neurogenic properties of the cells:
Negative (neutral) control is cell culture Media (final DMSO concentration: 0.25%).
Positive controls are: • 1. cell culture Media+100 ng/ml FGF2 (final DMSO concentration: 0.1%) • 2. cell culture Media+20 ng/ml EGF (final DMSO concentration: 0.1%) • 3. cell culture Media+100 ng/ml Wnt3a (final DMSO concentration: 0.1%)
After 4 days incubation at 37° C., 5% CO2, the amount of ATP per well is quantified. The ATP concentration is proportional to the cell number. ATP is quantified by using the Promega CellTiterGlo® kit. The CellTiterGlo® reagents contain a cell lysis buffer, a thermo stable luciferase (UltraGlo™ recombinant luciferase), magnesium and luciferin. Luciferin reacts with ATP producing oxyluciferin, AMP and light. The luminescence signal is proportional to the ATP content.
The value of negative (neutral) control is determined for each assay plate by taking the average of 16 negative control wells. The neurogenic compound response is calculated for each compound as (compound/Negative Control)*100.
The values of EC150 from the dose response curve are determined for each test compound. The EC150 is the compound concentration at which 150% activity of control (100%) is reached.

Row | SMILES | EC (150% of control) [µM]
1 | COCCN(Cc1ccccc1)C(=O)c1ccc2cncc(-c3ccc(OC)cc3)c2n1 [Example 34, N-Benzyl-N-(2-methoxyethyl)-8-(4-methoxyphenyl)-1,6-naphthyridine-2-carboxamide] | 0.21
2 | COc1ccccc1-c1cncc2ccc(C(=O)NCCCn3ccnc3)nc12 [Example 39, N-(3-(1H-Imidazol-1-yl)propyl)-8-(2-methoxyphenyl)-1,6-naphthyridine-2-carboxamide] | 0.74
3 | CS(=O)(=O)c1cccc(CNC(=O)c2ccc3cncc(-c4ccc(Cl)cc4)c3n2)c1 [Example 51, 8-(4-Chlorophenyl)-N-(3-(methylsulfonyl)benzyl)-1,6-naphthyridine-2-carboxamide] | 0.12
4 | NC(=O)c1ccc2cncc(-c3ccc4c(c3)OCCO4)c2n1 [Example 92, 8-(2,3-Dihydrobenzo[b][1,4]dioxin-6-yl)-1,6-naphthyridine-2-carboxamide] | 0.03
5 | COc1cccc(-c2cncc3ccc(C(=O)NCc4ccccc4)nc23)c1 [Example 11, N-Benzyl-8-(3-methoxyphenyl)-1,6-naphthyridine-2-carboxamide] | 0.03
6 | NCc1ccc(-c2cncc3ccc(C(N)=O)nc23)cc1 [Example 156, 8-(4-(Aminomethyl)phenyl)-1,6-naphthyridine-2-carboxamide] | 0.31
7 | CN(C(=O)c1ccc2cncc(-c3ccc(Cl)cc3)c2n1)C1CC1 [Example 97, 8-(4-Chlorophenyl)-N-cyclopropyl-N-methyl-1,6-naphthyridine-2-carboxamide] | 0.26
8 | O=C(c1ccc2cncc(-c3ccc(Cl)cc3)c2n1)N1CCCCC1 [Example 56, (8-(4-Chlorophenyl)-1,6-naphthyridin-2-yl)(piperidin-1-yl)methanone] | 1.51
9 | CS(=O)(=O)c1ccc(CNC(=O)c2ccc3cncc(-c4cccc(F)c4)c3n2)cc1 [Example 113, 8-(3-Fluorophenyl)-N-(4-(methylsulfonyl)benzyl)-1,6-naphthyridine-2-carboxamide] | 0.17
10 | Cc1ccc(-c2cncc3ccc(C(N)=O)nc23)cc1 [Example 80, 8-Tolyl-1,6-naphthyridine-2-carboxamide] | 0.03
11 | O=C(c1ccc2cncc(-c3ccc(Cl)cc3)c2n1)N1CCOCC1 [Example 57, (8-(4-Chlorophenyl)-1,6-naphthyridin-2-yl)(morpholino)methanone] | 0.17
12 | NC(=O)c1ccc2cncc(-c3ccc(OCC(F)(F)F)cc3)c2n1 [Example 165, 8-(4-(2,2,2-Trifluoroethoxyl)phenyl)-1,6-naphthyridine-2-carboxamide] | 0.01
13 | CS(=O)(=O)CCNC(=O)c1ccc2cncc(-c3ccc(F)cc3)c2n1 [Example 135, 8-(4-Fluorophenyl)-N-(2-(methylsulfonyl)ethyl)-1,6-naphthyridine-2-carboxamide] | 0.08
14 | CCCCCCC(=O)NCc1cccc(-c2cncc3ccc(C(N)=O)nc23)c1 [Example 151, 8-(3-(Heptanamidomethyl)phenyl)-1,6-naphthyridine-2-carboxamide] | 0.03
15 | O=C(Nc1ccccc1)c1ccc2cncc(-c3ccc(Cl)cc3)c2n1 [Example 53, 8-(4-Chlorophenyl)-N-phenyl-1,6-naphthyridine-2-carboxamide] | 0.23
16 | COCCNC(=O)c1ccc2cncc(Br)c2n1 [Example 1, 8-Bromo-N-(2-methoxyethyl)-1,6-naphthyridine-2-carboxamide] | 1.2
17 | Cc1cc2cncc(-c3ccc(C(F)(F)F)cc3)c2nc1C(N)=O [Example 157, 3-Methyl-8-[4-(trifluoromethyl)phenyl]-1,6-naphthyridine-2-carboxamide] | 0.88

Row | SMILES | EC (150% of control) [µM]
18 | CC(NC(=O)c1ccc2cncc(-c3cccc(F)c3)c2n1)c1ccc(S(C)(=O)=O)cc1 (stereo not shown) [Example 109, 8-(3-Fluorophenyl)-N-(1-(4-(methylsulfonyl)phenyl)ethyl)-1,6-naphthyridine-2-carboxamide] | 4.2
19 | CCCCCCC(=O)NCc1ccc(-c2cncc3ccc(C(N)=O)nc23)cc1 [Example 149, 8-(4-(Heptanamidomethyl)phenyl)-1,6-naphthyridine-2-carboxamide] | 0.07
20 | NC(=O)c1ccc2cncc(-c3ccc4c(c3)OCO4)c2n1 [Example 91, 8-(Benzo[d][1,3]dioxol-5-yl)-1,6-naphthyridine-2-carboxamide] | 0.03
21 | O=C(NCc1ccccc1)c1ccc2cncc(-c3cccc(Cl)c3)c2n1 [Example 14, N-Benzyl-8-(3-chlorophenyl)-1,6-naphthyridine-2-carboxamide] | 0.54
22 | CS(=O)(=O)c1ccc(CNC(=O)c2ccc3cncc(-c4ccc(F)c(F)c4)c3n2)cc1 [Example 115, 8-(3,4-Difluorophenyl)-N-(4-(methylsulfonyl)benzyl)-1,6-naphthyridine-2-carboxamide] | 1.95
23 | O=C(NCCO)c1ccc2cncc(-c3ccc(Cl)cc3)c2n1 [Example 158, 8-(4-Chlorophenyl)-N-(2-hydroxyethyl)-1,6-naphthyridine-2-carboxamide] | 0.09
24 | O=C(NCc1ccncc1)c1ccc2cncc(-c3ccccc3Cl)c2n1 [Example 30, 8-(2-Chlorophenyl)-N-(pyridin-4-ylmethyl)-1,6-naphthyridine-2-carboxamide] | 0.49
25 | Cc1nc(C)c(-c2cncc3ccc(C(N)=O)nc23)s1 [Example 102, 8-(2,4-Dimethylthiazol-5-yl)-1,6-naphthyridine-2-carboxamide] | 0.14
26 | COCCNC(=O)c1ccc2cncc(-c3ccc(Cl)cc3)c2n1 [Example 6, 8-(4-Chlorophenyl)-N-(2-methoxyethyl)-1,6-naphthyridine-2-carboxamide] | 0.02
27 | O=C(NCCCn1ccnc1)c1ccc2cncc(-c3ccccc3Cl)c2n1 [Example 40, N-(3-(1H-Imidazol-1-yl)propyl)-8-(2-chlorophenyl)-1,6-naphthyridine-2-carboxamide] | 0.69
28 | NC(=O)c1ccc2cncc(-c3ccc(F)c(F)c3)c2n1 [Example 83, 8-(3,4-Difluorophenyl)-1,6-naphthyridine-2-carboxamide] | 0.1
29 | O=C(NCc1ccccn1)c1ccc2cncc(-c3ccc(Cl)cc3)c2n1 [Example 46, 8-(4-Chlorophenyl)-N-(pyridin-2-ylmethyl)-1,6-naphthyridine-2-carboxamide] | 0.51
30 | O=C(NCc1ccccc1)c1ccc2cncc(-c3cccnc3)c2n1 [Example 17, N-Benzyl-8-(pyridin-3-yl)-1,6-naphthyridine-2-carboxamide] | 0.11
31 | COc1ccc(-c2cncc3ccc(C(N)=O)nc23)cn1 [Example 89, 8-(6-Methoxypyridin-3-yl)-1,6-naphthyridine-2-carboxamide] | 0.09
32 | Cc1ccccc1-c1cncc2ccc(C(N)=O)nc12 [Example 82, 8-o-Tolyl-1,6-naphthyridine-2-carboxamide] | 2.05
33 | CC(NC(=O)c1ccc2cncc(-c3cccc(OCC(F)(F)F)c3)c2n1)C(C)(C)O (stereo not shown) [Example 164, N-(3-Hydroxy-3-methylbutan-2-yl)-8-(3-(2,2,2-trifluoroethoxyl)phenyl)-1,6-naphthyridine-2-carboxamide] | 0.76
34 | CC(NC(=O)c1ccc2cncc(-c3ccccc3F)c2n1)c1ccc(S(C)(=O)=O)cc1 (stereo not shown) [Example 108, 8-(2-Fluorophenyl)-N-(1-(4-(methylsulfonyl)phenyl)ethyl)-1,6-naphthyridine-2-carboxamide] | 0.5

same assay, conditions: Homo sapiens, Neural stem cell, 96 h; Table 2, known compounds; concentration at which 150% activity of control (100%) is reached; ATP levels (CellTiterGlo) after 4 days incubation

Row | SMILES | EC (150% of control) [µM]
35 | COc1ccccc1CNC(=O)c1ccc2cncc(-c3ccccc3)c2n1 [Example 194, 8-Phenyl-[1,6]naphthyridine-2-carboxylic acid 2-methoxy-benzylamide] | 0.73
36 | O=C(NCc1ccccc1)c1ccc2cncc(-c3ccccc3)c2n1 [Example 191, 8-Phenyl-[1,6]naphthyridine-2-carboxylic acid benzylamide] | 0.44

same assay, conditions: Table 1, novel compounds; concentration at which 150% activity of control (100%) is reached; ATP levels (CellTiterGlo) after 4 days incubation

Row | SMILES | EC150 [µM]
37 | CC1(CNC(=O)c2ccc3cncc(-c4ccc(Cl)cc4)c3n2)CCC(=O)N1 (stereo not shown) [Example 141, 8-(4-Chlorophenyl)-N-((2-methyl-5-oxopyrrolidin-2-yl)methyl)-1,6-naphthyridine-2-carboxamide] | 0.01
